Experimental data from PMC7838546, “A Thermostable, Modified Cathelicidin-Derived Peptide With Enhanced Membrane-Active Activity Against Salmonella enterica serovar Typhimurium” (Frontiers in Microbiology, 2021).

System: L929 mouse fibroblast cells
Assay: Cytotoxicity assay (MTT)
Type: cell-based
Conditions: 24 h, 62.5 μg/ml
Procedure: The toxicity of P7 peptide on L929 mouse fibroblast cells was assessed by a dye reduction assay using 3-(4,5 dimethylthiazol-2-yl)-2,5-diphenyltetrazolium bromide (MTT). Briefly, 3 × 10^4 L929 cells in RPMI 1640 [supplemented with 10% (v/v) fetal bovine serum, 0.2% (w/v) sodium bicarbonate, 2 mM L-glutamine, 100 U/ml penicillin and […] streptomycin] were seeded into each well of 96-well plates and then incubated in a humidified atmosphere with 5% CO2 at 37°C for 24 h. After the incubation period, the peptide was added to obtain final concentrations of 0.98–250 μg/ml; plates were incubated at 37°C under 5% CO2 for 24 h. RPMI 1640 medium with and without cells were used as positive and negative controls, respectively. After incubation, a final concentration of 0.5 mg/ml MTT (Sigma-Aldrich, MO, United States) was added and incubated at 37°C under 5% CO2 for 4 h. Then, the supernatants were removed from each well and 150 μl of dimethyl sulfoxide (DMSO) was added and mixed thoroughly to solubilize the formazan crystals. Subsequently, absorbance was measured at 570 nm using a microplate reader. The cell viability (%) was calculated according to the formula:
%Cellviability=ODTreated-ODBlank/ODUntreated-ODBlank×100

CC[C@H](C)[C@H](NC(=O)CN)C(=O)NCC(=O)N[C@@H](C)C(=O)N[C@H](C(=O)N[C@@H](CC(C)C)C(=O)N[C@@H](CCCCN)C(=O)N[C@H](C(=O)N[C@@H](CC(C)C)C(=O)N[C@H](C(=O)N[C@H](C(=O)NCC(=O)N[C@@H](CC(C)C)C(=O)N1CCC[C@H]1C(=O)N[C@@H](C)C(=O)N[C@@H](CC(C)C)C(=O)N[C@H](C(=O)N[C@@H](CO)C(=O)N[C@@H](Cc1c[nH]c2ccccc12)C(=O)N[C@H](C(=O)N[C@@H](CCCCN)C(=O)N[C@@H](CCCNC(=N)N)C(=O)N[C@@H](CCCCN)C(=O)N[C@@H](CCCNC(=N)N)C(=O)N[C@@H](CCC(N)=O)C(=O)N[C@@H](CCC(N)=O)C(N)=O)[C@@H](C)CC)[C@@H](C)CC)[C@@H](C)O)[C@@H](C)O)C(C)C)C(C)C [Melittin, reference compound]
Cell viability: less than 10%
